# ChEMBL document CHEMBL4402554, “Discovery of a Bromodomain and Extraterminal Inhibitor with a Low Predicted Human Dose through Synergistic Use of Encoded Library Technology and Fragment Screening” (J Med Chem, 2020)
# “And” between values parts separate entries of the source, which are not always exact repeats. Equal values may be shown once. The source made the active and inactive calls. The rule behind the calls is not given here.
# How the values were obtained:
# Homo sapiens = organism: Homo sapiens; test: Selectivity ratio of pIC50 for Alexa Fluor 647 labelled ligand from recombinant human N-terminal His6-tagged BRD4 BD1 (1 to 477 residues)/BD2 Y390A mutant to pIC50 for BAZ2A (unknown origin)
# [1] = molecular target: Bromodomain adjacent to zinc finger domain protein 2A (Homo sapiens, UniProt Q9UIF9); test: Inhibition of BAZ2A (unknown origin) by TR-FRET assay
# [2] = molecular target: T1, Bromodomain-containing protein 4 (Homo sapiens, UniProt O60885, Y390A); test: Displacement of Alexa Fluor 647 labelled ligand from recombinant human N-terminal His6-tagged BRD4 BD1 (1 to 477 residues)/BD2 Y390A mutant incubated for 30 mins by TR-FRET assay
# Blood [3] = test: Inhibition of LPS-induced MCP1 production in human whole blood preincubated for 30 mins followed by LPS addition measured after 18 to 24 hrs; format: functional, tissue-based
# [4] = Lipophilicity, log D of the compound at pH 7.4 by chromatographic method; format: physicochemical; settings: buffer
# [5] = Solubility of compound in pH 6.5 FASSIF at 1 mg incubated for 4 hrs by HPLC-UV analysis; format: physicochemical
# [6] = Stability in human hepatocytes; format: ADME, cell-based, Hepatocyte
# [7] = Metabolic stability in human liver microsomes; format: ADME, Microsome
# [8] = Half life in rat at 1 mg/kg, iv; format: ADME, organism-based; settings: in vivo
# [9] = Metabolic stability in rat liver microsomes; format: ADME, Microsome
# [10] = Half life in dog at 0.5 mg/kg, iv; format: ADME, organism-based, Canis lupus familiaris; settings: in vivo
# [11] = Stability in dog hepatocytes; format: ADME, cell-based, Canis lupus familiaris, Hepatocyte
# [12] = Unbound clearance in rat at 1 mg/kg, iv; format: ADME, organism-based; settings: in vivo
# [13] = Metabolic stability in dog liver microsomes; format: ADME, Canis lupus familiaris, Microsome
# [14] = Unbound clearance in dog at 0.5 mg/kg, iv; format: ADME, organism-based, Canis lupus familiaris; settings: in vivo
# [15] = Volume of distribution at steady state in dog at 0.5 mg/kg, iv; format: ADME, organism-based, Canis lupus familiaris; settings: in vivo; for Vd: read-out: Vdss
# [16] = Oral bioavailability in dog at 1 mg/kg; format: ADME, organism-based, Canis lupus familiaris; settings: in vivo
# [17] = Fraction unbound in rat plasma at 1 mg/kg, iv; format: ADME, organism-based
# [18] = Clearance in rat at 1 mg/kg, iv; format: ADME, organism-based; settings: in vivo
# [19] = Fraction unbound in dog plasma at 0.5 mg/kg, iv; format: ADME, organism-based, Canis lupus familiaris
# [20] = Fraction unbound in human plasma; format: ADME, cell-free
# Blood [21] = test: Inhibition of LPS-induced IL6 production in human whole blood preincubated for 30 mins followed by LPS addition measured after 18 to 24 hrs; format: functional, tissue-based
# [22] = Volume of distribution at steady state in rat at 1 mg/kg, iv; format: ADME, organism-based; settings: in vivo, read-out: Vdss
# [23] = Stability in rat hepatocytes; format: ADME, cell-based, Hepatocyte
# [24] = Clearance in dog at 0.5 mg/kg, iv; format: ADME, organism-based, Canis lupus familiaris; settings: in vivo
# Mus musculus [25] = test: Antiinflammatory activity in TNP-KLH- treated CD-1 mouse T cell-dependent immunization model assessed as IgG1 level at 3 mg/kg, po qd treated for 0.5 hrs followed by TNP-KLH treatment and measured after 14 days by ELISA analysis; format: functional
# [26] = Metabolic stability in CD-1 mouse liver microsomes; format: ADME, Microsome
# [27] = AUC (0 to infinity) in rat at 3 mg/kg, po; format: ADME, organism-based; design: dose 3 mg/kg, route oral, time infinity; settings: in vivo
# [28] = Stability in CD-1 mouse hepatocytes; format: ADME, cell-based, Hepatocyte
# Mus musculus [29] = test: Antiinflammatory activity in LPS-challenged CD-1 mouse assessed as reduction in cytokine production at 1 to 10 mg/kg, po administrated as single dose 30 mins prior to LPS challenge measured after 5 hrs by immunoassay; format: functional, organism-based
# Mus musculus [30] = test: Antiinflammatory activity in TNP-KLH- treated CD-1 mouse T cell-dependent immunization model assessed as IgG1 level at 3 mg/kg, po qod treated for 0.5 hrs followed by TNP-KLH treatment and measured after 14 days by ELISA analysis; format: functional
# [31] = Oral bioavailability in rat at 3 mg/kg; settings: in vivo
# Mus musculus [32] = test: Antiinflammatory activity in TNP-KLH- treated CD-1 mouse T cell-dependent immunization model assessed as IgG1 level at 0.3 mg/kg, po qd treated for 0.5 hrs followed by TNP-KLH treatment and measured after 14 days by ELISA analysis; format: functional
# [33] = AUC (0 to infinity) in CD-1 mouse at 3 mg/kg, po; format: ADME, organism-based; design: dose 3 mg/kg, route oral, time infinity; settings: in vivo
# [34] = AUC (0 to infinity) in rat at 30 mg/kg, po; format: ADME, organism-based; design: dose 30 mg/kg, route oral, time infinity; settings: in vivo
# [35] = Oral bioavailability in rat at 30 mg/kg; format: ADME, organism-based; settings: in vivo
# [36] = AUC (0 to infinity) in dog at 1.5 mg/kg, po; format: ADME, organism-based, Canis lupus familiaris; design: dose 1.5 mg/kg, route oral, time infinity; settings: in vivo
# [37] = molecular target: T1, Bromodomain-containing protein 4; test: Displacement of Alexa Fluor 647 labelled ligand from recombinant human N-terminal His6-tagged BRD4 BD1 (1 to 477 residues)/BD2 Y390A mutant incubated for 60 mins by fluorescence polarization assay
# Sequence of Bromodomain adjacent to zinc finger domain protein 2A (Q9UIF9 whole entry, the tested form may be a part): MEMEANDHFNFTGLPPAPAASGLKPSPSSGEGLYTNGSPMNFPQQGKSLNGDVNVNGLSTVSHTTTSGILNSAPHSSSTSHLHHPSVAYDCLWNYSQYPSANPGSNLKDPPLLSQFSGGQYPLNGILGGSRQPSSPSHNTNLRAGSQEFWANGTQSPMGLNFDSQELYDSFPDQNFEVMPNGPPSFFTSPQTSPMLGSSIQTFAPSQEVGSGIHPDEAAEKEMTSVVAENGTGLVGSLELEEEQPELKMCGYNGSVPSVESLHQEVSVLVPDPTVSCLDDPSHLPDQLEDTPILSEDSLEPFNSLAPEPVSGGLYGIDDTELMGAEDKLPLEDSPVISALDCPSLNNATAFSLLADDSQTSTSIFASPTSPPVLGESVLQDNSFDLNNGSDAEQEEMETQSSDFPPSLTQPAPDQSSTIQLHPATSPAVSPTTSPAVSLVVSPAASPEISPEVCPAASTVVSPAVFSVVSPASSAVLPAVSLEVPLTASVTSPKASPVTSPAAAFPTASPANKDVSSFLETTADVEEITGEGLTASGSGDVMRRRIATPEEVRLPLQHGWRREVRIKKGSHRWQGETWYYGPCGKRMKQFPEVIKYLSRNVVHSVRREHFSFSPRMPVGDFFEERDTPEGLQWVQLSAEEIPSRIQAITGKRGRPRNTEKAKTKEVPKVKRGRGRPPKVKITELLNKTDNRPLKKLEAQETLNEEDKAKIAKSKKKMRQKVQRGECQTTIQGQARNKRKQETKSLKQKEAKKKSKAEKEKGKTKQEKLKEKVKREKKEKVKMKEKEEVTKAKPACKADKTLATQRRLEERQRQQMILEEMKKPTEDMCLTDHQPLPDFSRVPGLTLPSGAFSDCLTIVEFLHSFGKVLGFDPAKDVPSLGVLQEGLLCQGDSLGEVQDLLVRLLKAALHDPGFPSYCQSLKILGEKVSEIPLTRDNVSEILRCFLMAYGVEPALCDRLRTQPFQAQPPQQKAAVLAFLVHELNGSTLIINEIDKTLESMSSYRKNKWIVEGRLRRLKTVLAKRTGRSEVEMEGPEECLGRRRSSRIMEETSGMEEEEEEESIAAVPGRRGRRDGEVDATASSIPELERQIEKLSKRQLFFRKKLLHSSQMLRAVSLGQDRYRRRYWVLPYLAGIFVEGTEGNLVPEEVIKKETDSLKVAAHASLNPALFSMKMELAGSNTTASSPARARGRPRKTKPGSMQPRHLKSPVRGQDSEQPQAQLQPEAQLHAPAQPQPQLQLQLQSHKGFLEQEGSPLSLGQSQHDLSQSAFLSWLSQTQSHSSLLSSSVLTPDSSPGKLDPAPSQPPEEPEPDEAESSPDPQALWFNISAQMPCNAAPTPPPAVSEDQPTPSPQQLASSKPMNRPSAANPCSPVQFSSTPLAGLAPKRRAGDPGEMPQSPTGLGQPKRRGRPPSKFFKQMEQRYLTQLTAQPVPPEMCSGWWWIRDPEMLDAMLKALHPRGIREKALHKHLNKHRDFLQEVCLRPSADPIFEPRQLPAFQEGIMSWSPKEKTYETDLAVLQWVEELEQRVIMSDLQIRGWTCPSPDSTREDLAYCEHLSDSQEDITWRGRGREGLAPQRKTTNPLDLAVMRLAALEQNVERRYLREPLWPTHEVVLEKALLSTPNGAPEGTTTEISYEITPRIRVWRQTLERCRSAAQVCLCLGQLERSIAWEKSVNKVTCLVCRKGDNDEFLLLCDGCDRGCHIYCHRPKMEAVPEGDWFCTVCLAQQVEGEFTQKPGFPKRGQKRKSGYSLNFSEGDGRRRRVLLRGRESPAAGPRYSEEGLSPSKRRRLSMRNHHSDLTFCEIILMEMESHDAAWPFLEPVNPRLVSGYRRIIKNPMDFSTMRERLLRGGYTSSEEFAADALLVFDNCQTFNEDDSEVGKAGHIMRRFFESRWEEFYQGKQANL
structure (smiles),measurement,setting,value
Cc1cc(-c2nc3ccccc3n2CCC2CCOCC2)cn(C)c1=O,Ratio pIC50,Homo sapiens,2.9
same,IC50,[1],39800 nM
same,IC50,[2],50.1 nM
CCC(C1CCOCC1)n1c(-c2cc(C)c(=O)n(C)c2)nc2ccccc21 (configuration not stated),Ratio pIC50,Homo sapiens,> 2.1 and 1.6
same,IC50,[2],794 nM and 158 nM
Cc1cc(-c2nc3cc(N4CCOCC4)ccc3n2CC2CCOCC2)cn(C)c1=O,IC50,Blood [3],12.6 nM
same,chromatographic logD,[4],2.3
same,IC50,[2],10 nM
same,solubility at 4 h,[5],> 1000 µg/mL
CC(=O)N1CCC(Cn2c(-c3cc(C)c(O)c(C)c3)nc3ccccc32)CC1,IC50,[2],501 nM
CNC(=O)c1ccc2c(c1)nc(-c1cc(C)c(O)c(C)c1)n2CC1CCNCC1,chromatographic logD,[4],0.8
same,IC50,[2],2000 nM
Cc1cc(-c2nc3ccccc3n2CC2CCOCC2)cn(C)c1=O,Stability,[6],< 0.87 mL/min/g
same,Stability,[7],0.83 mL/min/g
same,half-life,[8],0.2 h
same,Stability,[9],3.2 mL/min/g
same,half-life,[10],2.3 h
same,Stability,[11],< 1.3 mL/min/g
same,CL free,[12],149 mL/min/kg
same,Stability,[13],< 0.37 mL/min/g
same,CL free,[14],17 mL/min/kg
same,Vd,[15],1.4 L/kg
same,IC50,[1],316 nM
same,bioavailability,[16],97%
same,IC50,Blood [3],251 nM
same,fraction unbound,[17],0.55
same,clearance,[18],82 mL/min/kg
same,fraction unbound,[19],0.47
same,fraction unbound,[20],0.4
same,IC50,Blood [21],200 nM
same,Vd,[22],1.4 L/kg
same,Stability,[23],17 mL/min/g
same,solubility at 4 h,[5],> 1000 µg/mL
same,clearance,[24],8 mL/min/kg
CC(=O)N[C@H]1CC[C@H](Cn2c(-c3cc(C)c(O)c(C)c3)nc3ccccc32)CC1,IC50,[2],1580 nM
COCC(COC)n1c(-c2cc(C)c(=O)n(C)c2)nc2cc(N3CCOCC3)ccc21,Stability,[6],< 0.87 mL/min/g
same,Stability,[7],< 0.4 mL/min/g
same,Activity,Mus musculus [25],20%
same,half-life,[8],3.8 h
same,Stability,[9],< 0.46 mL/min/g
same,Stability,[26],< 0.48 mL/min/g
same,t1/2,[10],5.3 h
same,Stability,[11],< 1.3 mL/min/g
same,CL free,[12],24 mL/min/kg
same,Stability,[13],< 0.37 mL/min/g
same,CL free,[14],4 mL/min/kg
same,AUC(0-inf),[27],2610 ng·h/mL
same,Stability,[28],< 1 mL/min/g
same,Vdss,[15],0.9 L/kg
same,IC50,[1],63100 nM
same,bioavailability,[16],101%
same,Activity,Mus musculus [29],Active
same,IC50,Blood [3],25.1 nM
same,fraction unbound,[17],0.69
same,Activity,Mus musculus [30],65%
same,clearance,[18],17 mL/min/kg
same,bioavailability,[31],94%
same,fraction unbound,[19],0.5
same,Activity,Mus musculus [32],65%
same,AUC(0-inf),[33],3620 ng·h/mL
same,AUC(0-inf),[34],27000 ng·h/mL
same,fraction unbound,[20],0.72
same,IC50,Blood [21],20 nM
same,Vd,[22],2.3 L/kg
same,Stability,[23],< 0.8 mL/min/g
same,bioavailability,[35],93%
same,AUC(0-inf),[36],12500 ng·h/mL
CC(=O)N1CCC(Cn2c(-c3cc(C)c(O)c(C)c3)nc3ccccc32)C1 (racemic),IC50,[2],2510 nM
CC(=O)N1CCC(n2c(-c3cc(C)c(O)c(C)c3)nc3ccccc32)CC1,IC50,[2],1580 nM
Cc1cc(-c2nc3ccccc3n2CC2CCCOC2)cn(C)c1=O (configuration not stated),IC50,[1],25100 nM and 79400 nM
same,IC50,[2],31.6 nM and 25.1 nM
Cc1cc(-c2nc3ccccc3n2CC2CC3(COC3)C2)cn(C)c1=O,Stability,[7],< 0.4 mL/min/g
same,Stability,[9],0.99 mL/min/g
same,Ratio pIC50,Homo sapiens,3.1
same,IC50,[1],63100 nM
same,IC50,[2],50.1 nM
Cc1cc(-c2nc3ccccc3n2C(C)C2CCOCC2)cn(C)c1=O (configuration not stated),Ratio pIC50,Homo sapiens,1.4 and 0.9
Cc1cc(-c2nc3ccccc3n2CC2CCN(C(=O)CO)CC2)c[nH]c1=O,IC50,[2],1580 nM
CC(=O)N[C@H]1CC[C@@H](Cn2c(-c3cc(C)c(O)c(C)c3)nc3ccccc32)CC1,IC50,[2],501 nM
COCC(C)n1c(-c2cc(C)c(=O)n(C)c2)nc2ccccc21 (racemic),Ratio pIC50,Homo sapiens,2.1
same,IC50,[1],39800 nM
same,IC50,[2],316 nM
CNC(=O)c1ccc2c(c1)nc(-c1cc(C)c(O)c(C)c1)n2CC1CCN(C(C)=O)CC1,chromatographic logD,[4],2
same,IC50,[37],251 nM
O=C(CO)N1CCC(Cn2c(-c3ccc(=O)[nH]c3)nc3ccccc32)CC1,IC50,[2],> 50100 nM
Cn1cc(-c2nc[nH]c2-c2ccc(F)cc2)ccc1=O,IC50,[2],6310 nM
COCC(COC)n1c(-c2cc(C)c(=O)n(C)c2)nc2ccccc21,Stability,[6],< 0.87 mL/min/g
same,Stability,[7],< 0.4 mL/min/g
same,half-life,[8],3.2 h
same,Stability,[9],< 0.46 mL/min/g
same,half-life,[10],1.7 h
same,Stability,[11],< 1.3 mL/min/g
same,CL free,[12],63 mL/min/kg
same,Stability,[13],< 0.37 mL/min/g
same,CL free,[14],9 mL/min/kg
same,Vd,[15],0.8 L/kg
same,Ratio pIC50,Homo sapiens,> 3.7
same,IC50,[1],> 100000 nM
same,bioavailability,[16],46%
same,fraction unbound,[17],0.59
same,clearance,[18],37 mL/min/kg
same,bioavailability,[31],46%
same,fraction unbound,[19],0.57
same,fraction unbound,[20],0.37
same,IC50,[2],39.8 nM
same,Vd,[22],2.1 L/kg
same,Stability,[23],1.1 mL/min/g
same,clearance,[24],5 mL/min/kg
Cc1cc(-c2nc3ccccc3n2C[C@H]2CC[C@H](O)CC2)cn(C)c1=O,Ratio pIC50,Homo sapiens,2.8
same,IC50,[1],50100 nM
same,IC50,[2],79.4 nM
CNC(=O)c1ccc2c(c1)nc(-c1cc(C)c(O)c(C)c1)n2CC1CCN(C(=O)c2ccccc2)CC1,chromatographic logD,[4],3.2
same,IC50,[37],126 nM
same,IC50,[2],200 nM
CC(=O)N1CC(Cn2c(-c3cc(C)c(O)c(C)c3)nc3ccccc32)C1,IC50,[2],1580 nM
Cc1cc(-c2nc3cc(N(C)C)ccc3n2CC2CCOCC2)cn(C)c1=O,chromatographic logD,[4],2.9
Cn1cc(-c2nc3ccccc3n2CC2CCN(C(=O)CO)CC2)ccc1=O,IC50,[2],7940 nM
